Measurements: article PMC7179994 (Thrombosis and haemostasis, 2019)

Experiments:
[1] = system: leukocyte (neutrophil) infiltration into the peritoneum, wild-type C57BL/6J mice; assay: Mouse model of peritonitis, leukocyte infiltration, wild-type mice; format: in vivo; conditions: 0.8 μM i.v. in 200 μL PBS, without (β15–44)2, 4 hours, n = 7
[2] = system: transendothelial migration of leukocytes; conditions: fibrinogen; cited from earlier work

Row | Compound | Infiltration of leukocytes, Fyn inhibitor alone [1] | Transendothelial migration of leukocytes [2]
1 | CN1CCN(CCOc2cc(OC3CCOCC3)c3c(Nc4c(Cl)ccc5c4OCO5)ncnc3c2)CC1 [Saracatinib] | no effect on infiltration of leukocytes | 
2 | fibrinogen |  | promotes transendothelial migration of leukocytes
